Measurements: patent US20230073777A1, “CYCLIC-AMP RESPONSE ELEMENT BINDING PROTEIN (CBP) AND/OR ADENOVIRAL E1A BINDING PROTEIN OF 300 KDA (P300) DEGRADATION COMPOUNDS AND METHODS OF USE” (CULLGEN (SHANGHAI), INC., priority 2019, published 2023)

How the values were obtained:
VCaP = assay: Cell viability assay, VCaP; assay type: cell-based; conditions: Homo sapiens, Prostate carcinoma
Procedure: (§1) Cells were seeded at a density of 5000 cells per well in 96-well assay plates and treated with test compounds following a 12-point 3-fold serial dilution. Three days later, cell viability was determined using the CellTiter-Glo assay kit according to the manufacturer's instructions. The dose-response curves were determined and IC50 values were calculated using the GraphPad Prism software following a nonlinear regression (least squares fit) method.
(§2) The IC50 value of each compound was determined as described in FIG. 4 and calculated using the GraphPad Prism 5.0 software.

L-363 = assay: Cell viability assay, L-363; assay type: cell-based; conditions: Homo sapiens, L-363, Multiple myeloma
Procedure: as §1, §2

P300 = P300 (Homo sapiens, UniProt Q09472); assay: Pharmacodynamic study, P300 in 22RV1 subcutaneous xenograft tumors; assay type: in vivo, Athymic nude mice; design: from tissue; host or cells: 22RV1 subcutaneous xenograft tumours in athymic nude mice; conditions: single dose 40 mg/kg, i.p. or p.o., six hours after administration (FIG. 9)
P300, sequence (Q09472 whole entry): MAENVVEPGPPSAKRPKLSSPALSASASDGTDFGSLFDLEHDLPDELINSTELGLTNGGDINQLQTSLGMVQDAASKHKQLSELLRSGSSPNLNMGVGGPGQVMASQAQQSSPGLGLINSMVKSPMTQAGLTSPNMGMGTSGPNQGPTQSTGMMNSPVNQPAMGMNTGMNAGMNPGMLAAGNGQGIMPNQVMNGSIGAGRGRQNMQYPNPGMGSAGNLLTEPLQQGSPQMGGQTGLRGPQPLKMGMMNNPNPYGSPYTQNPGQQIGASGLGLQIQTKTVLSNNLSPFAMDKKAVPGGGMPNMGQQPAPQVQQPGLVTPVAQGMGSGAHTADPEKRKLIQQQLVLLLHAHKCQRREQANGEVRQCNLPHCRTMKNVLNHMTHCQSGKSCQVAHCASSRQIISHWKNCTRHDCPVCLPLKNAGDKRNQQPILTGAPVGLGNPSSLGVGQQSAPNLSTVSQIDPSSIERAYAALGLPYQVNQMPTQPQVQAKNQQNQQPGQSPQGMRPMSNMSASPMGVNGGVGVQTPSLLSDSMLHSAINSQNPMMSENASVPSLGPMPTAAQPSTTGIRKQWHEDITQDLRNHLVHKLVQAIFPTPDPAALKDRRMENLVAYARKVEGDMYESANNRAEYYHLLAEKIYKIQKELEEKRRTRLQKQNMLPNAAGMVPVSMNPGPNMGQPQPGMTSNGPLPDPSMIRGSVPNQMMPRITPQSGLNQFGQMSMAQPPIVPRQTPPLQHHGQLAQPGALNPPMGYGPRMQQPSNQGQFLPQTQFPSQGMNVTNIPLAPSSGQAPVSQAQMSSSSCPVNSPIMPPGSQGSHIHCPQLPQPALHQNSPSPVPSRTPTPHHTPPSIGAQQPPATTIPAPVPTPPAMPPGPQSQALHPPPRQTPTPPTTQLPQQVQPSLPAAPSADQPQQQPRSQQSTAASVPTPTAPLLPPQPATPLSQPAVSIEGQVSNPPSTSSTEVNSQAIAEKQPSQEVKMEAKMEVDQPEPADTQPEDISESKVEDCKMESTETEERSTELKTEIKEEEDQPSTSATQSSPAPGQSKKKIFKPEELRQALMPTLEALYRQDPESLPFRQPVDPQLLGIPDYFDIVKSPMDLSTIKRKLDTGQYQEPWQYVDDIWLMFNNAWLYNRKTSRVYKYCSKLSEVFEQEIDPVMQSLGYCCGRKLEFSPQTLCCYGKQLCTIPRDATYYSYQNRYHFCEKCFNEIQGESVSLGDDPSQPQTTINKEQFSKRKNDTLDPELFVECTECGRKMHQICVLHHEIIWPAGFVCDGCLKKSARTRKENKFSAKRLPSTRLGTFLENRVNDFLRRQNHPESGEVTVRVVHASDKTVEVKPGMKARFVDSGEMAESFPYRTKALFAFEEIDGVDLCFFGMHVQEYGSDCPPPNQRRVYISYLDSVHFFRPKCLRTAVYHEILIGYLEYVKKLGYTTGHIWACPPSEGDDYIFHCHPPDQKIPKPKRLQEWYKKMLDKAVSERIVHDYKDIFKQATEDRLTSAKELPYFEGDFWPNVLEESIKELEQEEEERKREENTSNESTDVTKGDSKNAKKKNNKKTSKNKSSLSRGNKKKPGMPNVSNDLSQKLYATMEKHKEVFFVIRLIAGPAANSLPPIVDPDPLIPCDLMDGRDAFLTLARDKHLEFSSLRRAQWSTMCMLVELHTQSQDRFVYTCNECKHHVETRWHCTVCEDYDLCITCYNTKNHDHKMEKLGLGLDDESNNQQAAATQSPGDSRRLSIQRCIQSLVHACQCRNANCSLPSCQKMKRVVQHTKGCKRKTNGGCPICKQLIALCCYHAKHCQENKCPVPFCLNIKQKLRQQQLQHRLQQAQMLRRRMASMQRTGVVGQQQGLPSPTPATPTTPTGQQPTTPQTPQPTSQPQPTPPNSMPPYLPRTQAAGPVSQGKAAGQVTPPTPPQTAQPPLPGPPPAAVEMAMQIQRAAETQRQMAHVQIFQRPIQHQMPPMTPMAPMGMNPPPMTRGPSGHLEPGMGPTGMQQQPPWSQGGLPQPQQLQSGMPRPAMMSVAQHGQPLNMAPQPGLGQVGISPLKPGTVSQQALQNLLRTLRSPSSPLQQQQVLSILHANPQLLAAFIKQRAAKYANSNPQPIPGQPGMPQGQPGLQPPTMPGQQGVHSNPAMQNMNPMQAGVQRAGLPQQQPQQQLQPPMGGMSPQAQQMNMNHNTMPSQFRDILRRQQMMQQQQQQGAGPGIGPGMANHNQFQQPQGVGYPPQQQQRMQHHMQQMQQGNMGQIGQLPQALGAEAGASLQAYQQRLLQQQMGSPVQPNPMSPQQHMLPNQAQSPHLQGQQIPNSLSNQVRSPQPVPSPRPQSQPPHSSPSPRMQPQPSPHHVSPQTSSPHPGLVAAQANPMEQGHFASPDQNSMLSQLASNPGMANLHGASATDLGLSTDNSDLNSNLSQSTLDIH
Procedure: (§3) In addition to cultured cells, athymic nude mice bearing 22RV1 subcutaneous xenograft tumors at the right flank were intraperitoneally or orally treated with 40 mg/kg bivalent compounds. Six hours after drug administration, animals were sacrificed for immunoblotting of P300 and CBP in homogenized xenograft tumor masses. […] Moreover, ICR mice were orally treated with 40 mg/kg bivalent compounds. Six hours after drug administration, animals were sacrificed for immunoblotting of CBP in homogenized lung tissues.
(§4) Athymic nude mice bearing 22RV1 subcutaneous xenograft tumors at the right flank were intraperitoneally or orally treated with selected bivalent compounds at 40 mg/kg. Six hours after drug administration, animals were sacrificed, and xenograft tumors were collected for immunoblotting of P300 and CBP.
(§5) All animal experiments were performed under protocols approved by the Institutional Animal Care and Use Committee (IACUC) of Cullgen. Athymic nude mice (male, 5-weeks old) received 5 million 22RV1 cells subcutaneously inoculated at the right flank site. Twenty days following inoculation, tumors were approximately 500 mm^3 in size. Tumor-bearing mice were treated intraperitoneally or via oral gavage with vehicle or bivalent compounds at indicated doses. 6 hours after drug administration, animals were sacrificed, tumors were resected. Small chunks of tumors were homogenized for immunoblotting of P300/CBP and other proteins as indicated. Alternatively, ICR mice (male, 5-weeks old) were treated via oral gavage with vehicle or bivalent compounds at indicated doses. 6 hours after drug administration, animals were sacrificed, lung tissues were resected. Small chunks of lung tissues were homogenized for immunoblotting of CBP and other proteins as indicated.

Kasumi-1 = assay: Cell viability assay, Kasumi-1; assay type: cell-based; conditions: Homo sapiens, Kasumi-1, Acute myeloid leukemia
Procedure: as §1, §2

22Rv1 = assay: Cell viability assay, 22Rv1; assay type: cell-based; conditions: Homo sapiens, 22Rv1, Prostate carcinoma
Procedure: as §1, §2

SU-DHL-1 = assay: Cell viability assay, SU-DHL-1; assay type: cell-based; conditions: Homo sapiens, SU-DHL-1, Diffuse large B-cell lymphoma
Procedure: as §1, §2

RPMI-8226 = assay: Cell viability assay, RPMI-8226; assay type: cell-based; conditions: Homo sapiens, RPMI-8226, Multiple myeloma
Procedure: as §1, §2

MM.1S = assay: Cell viability assay, MM.1S; assay type: cell-based; conditions: Homo sapiens, MM1.S, Multiple Myeloma
Procedure: as §1, §2

HL-60 = assay: Cell viability assay, HL-60; assay type: cell-based; conditions: Homo sapiens, HL-60, Acute myeloid leukemia
Procedure: as §1, §2

Pfeiffer = assay: Cell viability assay, Pfeiffer; assay type: cell-based; conditions: Homo sapiens, Diffuse large B-cell lymphoma
Procedure: as §1, §2

MM.1R = assay: Cell viability assay, MM.1R; assay type: cell-based; conditions: Multiple Myeloma
Procedure: as §1, §2

SK-BR-3 = assay: Cell viability assay, SK-BR-3; assay type: cell-based; conditions: Homo sapiens, SK-BR-3, breast carcinoma
Procedure: as §1, §2

CBP = molecular target: T1, CBP (Homo sapiens, UniProt Q92793); assay: Pharmacodynamic study, CBP in 22RV1 subcutaneous xenograft tumors; assay type: in vivo, Athymic nude mice; conditions: single dose 40 mg/kg, i.p. or p.o., six hours after administration (FIG. 9)
T1 construct: from tissue; host or cells: 22RV1 subcutaneous xenograft tumours in athymic nude mice
T1 sequence (Q92793 whole entry): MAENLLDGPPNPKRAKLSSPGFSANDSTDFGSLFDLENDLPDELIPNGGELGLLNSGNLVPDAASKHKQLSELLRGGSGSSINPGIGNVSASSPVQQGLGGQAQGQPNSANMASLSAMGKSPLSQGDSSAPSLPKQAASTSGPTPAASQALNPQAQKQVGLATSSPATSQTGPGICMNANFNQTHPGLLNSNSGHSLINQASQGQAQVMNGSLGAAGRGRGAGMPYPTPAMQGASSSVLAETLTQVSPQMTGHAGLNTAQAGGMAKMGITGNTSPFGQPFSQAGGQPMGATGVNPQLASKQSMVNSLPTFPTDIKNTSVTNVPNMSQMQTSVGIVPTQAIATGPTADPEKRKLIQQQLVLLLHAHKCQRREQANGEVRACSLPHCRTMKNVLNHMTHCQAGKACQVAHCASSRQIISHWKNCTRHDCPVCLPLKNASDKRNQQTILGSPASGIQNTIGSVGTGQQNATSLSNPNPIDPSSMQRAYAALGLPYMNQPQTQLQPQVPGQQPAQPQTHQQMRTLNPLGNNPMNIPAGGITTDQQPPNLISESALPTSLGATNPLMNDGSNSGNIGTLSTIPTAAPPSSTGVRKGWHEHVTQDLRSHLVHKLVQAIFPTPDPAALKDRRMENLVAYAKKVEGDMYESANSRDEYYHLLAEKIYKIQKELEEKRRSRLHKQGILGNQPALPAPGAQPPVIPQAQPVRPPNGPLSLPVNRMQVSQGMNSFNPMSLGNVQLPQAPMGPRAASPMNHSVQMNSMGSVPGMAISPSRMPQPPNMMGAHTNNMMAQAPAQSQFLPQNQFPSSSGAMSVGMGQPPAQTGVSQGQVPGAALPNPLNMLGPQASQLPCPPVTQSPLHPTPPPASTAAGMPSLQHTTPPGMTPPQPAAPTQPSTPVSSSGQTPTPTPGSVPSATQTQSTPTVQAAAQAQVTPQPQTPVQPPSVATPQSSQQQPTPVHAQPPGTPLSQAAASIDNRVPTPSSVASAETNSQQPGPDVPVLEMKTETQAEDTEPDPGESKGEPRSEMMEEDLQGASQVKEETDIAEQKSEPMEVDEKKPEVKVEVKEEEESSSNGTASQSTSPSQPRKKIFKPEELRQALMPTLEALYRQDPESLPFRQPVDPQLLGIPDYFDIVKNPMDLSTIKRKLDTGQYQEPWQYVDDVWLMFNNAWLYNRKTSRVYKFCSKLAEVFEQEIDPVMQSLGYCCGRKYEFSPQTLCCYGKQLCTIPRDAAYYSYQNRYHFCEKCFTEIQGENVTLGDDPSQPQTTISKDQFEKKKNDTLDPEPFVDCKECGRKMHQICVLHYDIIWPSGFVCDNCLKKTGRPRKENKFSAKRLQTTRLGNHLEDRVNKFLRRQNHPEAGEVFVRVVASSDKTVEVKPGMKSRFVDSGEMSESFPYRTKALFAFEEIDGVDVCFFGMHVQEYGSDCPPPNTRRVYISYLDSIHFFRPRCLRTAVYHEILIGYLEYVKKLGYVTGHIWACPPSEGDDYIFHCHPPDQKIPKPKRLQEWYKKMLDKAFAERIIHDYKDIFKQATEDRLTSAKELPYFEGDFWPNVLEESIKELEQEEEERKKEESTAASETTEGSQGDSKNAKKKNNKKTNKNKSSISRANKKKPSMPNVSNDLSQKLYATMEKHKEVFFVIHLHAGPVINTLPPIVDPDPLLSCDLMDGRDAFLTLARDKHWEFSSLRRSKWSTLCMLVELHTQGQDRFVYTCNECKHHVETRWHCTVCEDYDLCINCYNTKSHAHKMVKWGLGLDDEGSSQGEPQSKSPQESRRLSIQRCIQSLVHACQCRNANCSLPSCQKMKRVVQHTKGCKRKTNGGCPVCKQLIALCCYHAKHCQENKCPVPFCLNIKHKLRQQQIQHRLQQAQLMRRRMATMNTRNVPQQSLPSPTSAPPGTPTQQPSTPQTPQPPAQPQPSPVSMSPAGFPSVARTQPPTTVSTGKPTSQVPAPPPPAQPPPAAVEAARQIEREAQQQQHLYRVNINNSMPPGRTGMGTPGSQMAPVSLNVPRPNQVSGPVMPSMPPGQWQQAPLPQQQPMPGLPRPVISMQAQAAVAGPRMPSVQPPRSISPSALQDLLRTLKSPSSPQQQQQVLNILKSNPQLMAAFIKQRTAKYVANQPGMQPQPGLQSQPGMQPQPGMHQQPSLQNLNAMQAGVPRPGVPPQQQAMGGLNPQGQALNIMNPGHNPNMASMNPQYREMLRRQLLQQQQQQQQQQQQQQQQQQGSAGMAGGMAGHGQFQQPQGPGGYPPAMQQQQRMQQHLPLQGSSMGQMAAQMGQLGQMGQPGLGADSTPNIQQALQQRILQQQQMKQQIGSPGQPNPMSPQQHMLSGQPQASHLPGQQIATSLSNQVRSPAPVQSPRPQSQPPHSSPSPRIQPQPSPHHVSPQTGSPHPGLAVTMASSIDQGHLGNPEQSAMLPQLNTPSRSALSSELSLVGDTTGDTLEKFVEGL
Procedure: as §3, §4, §5

NCI-H929 = assay: Cell viability assay, NCI-H929; assay type: cell-based; conditions: Homo sapiens, NCI-H929, Multiple Myeloma
Procedure: as §1, §2

Karpas-422 = assay: Cell viability assay, Karpas-422; assay type: cell-based; conditions: Homo sapiens, Karpas-422, Diffuse large B-cell lymphoma
Procedure: as §1, §2

MV4; 11 = assay: Cell viability assay, MV4; 11; assay type: cell-based; conditions: Homo sapiens, 11, Acute monocytic leukemia
Procedure: as §1, §2

LNCaP cells = assay: LNCaP cell viability assay (CellTiter-Glo); assay type: cell-based; conditions: Homo sapiens
Summary of the method: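 LNCaP cells, 5000/well, exposed to compounds in 12-point 3-fold serial dilution (top 10 μM) for 3 days. Viability by CellTiter-Glo luminescence, normalized to untreated cells; IC50 by least-squares nonlinear regression.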

MCF-7 = assay: Cell viability assay, MCF-7; assay type: cell-based; conditions: Homo sapiens, MCF7, MCF-7, breast carcinoma
Procedure: as §1, §2

HEL = assay: Cell viability assay, HEL; assay type: cell-based; conditions: Homo sapiens, Erythroleukemia
Procedure: as §1, §2

MEG-01 = assay: Cell viability assay, MEG-01; assay type: cell-based; conditions: Homo sapiens, MEG-01, Chronic myeloid leukemia
Procedure: as §1, §2

NCI-H520 = assay: Cell viability assay, NCI-H520; assay type: cell-based; conditions: Homo sapiens, NCI-H520, Non-small cell lung cancer
Procedure: as §1, §2

MOLM-13 = assay: Cell viability assay, MOLM-13; assay type: cell-based; conditions: Homo sapiens, MOLM-13, Acute monocytic leukemia
Procedure: as §1, §2

AMO-1 = assay: Cell viability assay, AMO-1; assay type: cell-based; conditions: Homo sapiens, AMO1, AMO-1, Multiple Myeloma
Procedure: as §1, §2

[1] = 72 h, LNCaP prostate cancer cell viability inhibition, 3 days, CellTiter-Glo (Table 2)
[2] = cell viability, LNCaP clone FGC, Prostate carcinoma (Table 4)

Structure (SMILES) | IC50 (VCaP) [nM] | IC50 (L-363) [nM] | P300 protein levels in 22RV1 xenograft tumors (P300) | IC50 (Kasumi-1) [nM] | IC50 (22Rv1) [nM] | IC50 (SU-DHL-1) [nM] | IC50 (RPMI-8226) [nM] | IC50 (MM.1S) [nM] | IC50 (HL-60) [nM] | IC50 (Pfeiffer) [nM] | IC50 (MM.1R) [nM] | IC50 (SK-BR-3) [nM] | CBP protein levels in 22RV1 xenograft tumors (CBP) | IC50 (NCI-H929) [nM] | IC50 (Karpas-422) [nM] | IC50 (MV4; 11) [nM] | IC50 (LNCaP cells; [1]) [nM] | IC50 (LNCaP cells; [2]) [nM] | IC50 (MCF-7) [nM] | IC50 (HEL) [nM] | further results
CNC(=O)N1CCc2c(c(N3CCCc4cc(-c5cnn(C)c5)c(C(F)F)cc43)nn2C2CCN(C(=O)CCCCCCCNc3ccc4c(c3)C(=O)N(C3CCC(=O)NC3=O)C4=O)CC2)C1 (stereo not drawn) [P-007, 3-(7-(difluoromethyl)-6-(1-methyl-1H-pyrazol-4-yl)-3,4-dihydroquinolin-1(2H)-yl)-1-(1-(8-((2-(2,6-dioxopiperidin-3-yl)-1,3-dioxoisoindolin-5-yl)amino)octanoyl)piperidin-4-yl)-N-methyl-1,4,6,7-tetrahydro-5H-pyrazolo[4,3-c]pyridine-5-carboxamide] | 2.1 | 3 | significantly reducing | 87.8 | 3.2 | 3.4 | 3.7 | 0.7 | 17 | 2.1 | 0.3 | 5.5 | significantly reducing | 0.9 | 6.2 | 8.9 | 1.2 | 1.3 | 2.2 | 16.1 | IC50 (MEG-01): 7.9 nM; IC50 (NCI-H520): 2.8 nM; IC50 (MOLM-13): 7.7 nM; IC50 (AMO-1): 38.7 nM
CNC(=O)N1CCc2c(c(N3CCCc4cc(-c5cnn(C)c5)c(C(F)F)cc43)nn2C2CCN(C(=O)CCCCCNc3cccc4c3C(=O)N(C3CCC(=O)NC3=O)C4=O)CC2)C1 (stereo not drawn) [P-034, 3-(7-(difluoromethyl)-6-(1-methyl-1H-pyrazol-4-yl)-3,4-dihydroquinolin-1(2H)-yl)-1-(1-(6-((2-(2,6-dioxopiperidin-3-yl)-1,3-dioxoisoindolin-4-yl)amino)hexanoyl)piperidin-4-yl)-N-methyl-1,4,6,7-tetrahydro-5H-pyrazolo[4,3-c]pyridine-5-carboxamide] | 3.6 | 0.4 | significantly reducing | 1150 | 8.2 | 0.8 | 9.4 | 0.2 | 2.9 | 0.7 | 0.1 | 10.1 | significantly reducing | 0.2 | 0.9 | > 10000 | 0.4 | 0.6 | 65.4 | 37.8 | IC50 (MEG-01): 15.3 nM; IC50 (NCI-H520): 2 nM; IC50 (MOLM-13): 6.9 nM; IC50 (AMO-1): 141 nM
